Experiments:
Type in all cases: physicochemical
[1] = Experimental Example 5: comparison of hygroscopicity by weight gain over time (60 to 66% RH); conditions: 24 EC
Procedure: The L-Ala-OMe HCl salt, L-Ala-OEt MsOH salt, L-Ala-OEt BsOH salt, L-Ala-OEt 4-CBS salt, L-Ala-OEt 4-EBS salt, L-Ala-OEt 2,4-DMBS salt, and L-Ala-OEt 2,5-DMBS salt were measured in an amount of about 0.3 g each, left standing in a thermostatic chamber at a temperature of 24 EC and a humidity of 60 to 66% RH, and the hygroscopicity was compared based on the weight gain with the lapse of time.

[2] = Experimental Example 4: comparison of hygroscopicity by weight gain over time (40 to 46% RH); conditions: 24° C.
Procedure: The L-Ala-OEt HCl salt, L-Ala-OEt MsOH salt, L-Ala-OEt BsOH salt, L-Ala-OEt 4-CBS salt, L-Ala-OEt 4-EBS salt, L-Ala-OEt 2,4-DMBS salt, and L-Ala-OEt 2,5-DMBS salt were measured in an amount of about 0.3 g each, left standing in a thermostatic chamber at a temperature of 24° C. and a humidity of 40 to 46% RH, and the hygroscopicity was compared based on the weight gain with the lapse of time. A part of the crystal of the L-Ala-OEt HCl salt was liquefied in 30 minutes, and the liquefied portion increased thereafter with the lapse of time. After 100 minutes, the whole mass became like a sherbet.

[3] = Experimental Example 7: evaluation of hygroscopicity by weight gain over time (60 to 66% RH); conditions: 24 EC
Procedure: The L-Ala-OMe HCl salt, L-Ala-OMe 4-EBS salt, L-Ala-OMe 2,4-DMBS salt, and L-Ala-OMe 2,5-DMBS salt were measured in an amount of about 0.3 g each, left standing in a thermostatic chamber at temperature of 24 EC and a humidity of 60 to 66% RH, and the hygroscopicity was compared based on the weight gain with the lapse of time. A part of the crystal of the L-Ala-OMe HCl salt was liquefied in 10 minutes, and the entirety became a sherbet in 20 minute. The liquefied portion increased thereafter with the lapse of time. After 80 minutes, the whole was liquefied.

Molecule	weight increase rate (%) ([1]; 0 minutes)	weight increase rate (%) ([1]; 10 minutes)	weight increase rate (%) ([1]; 20 minutes)	weight increase rate (%) ([1]; 35 minutes)	weight increase rate (%) ([1]; 50 minutes)	weight increase rate (%) ([1]; 65 minutes)	weight increase rate (%) ([1]; 80 minutes)	weight increase rate (%) ([1]; 95 minutes)	weight increase rate (%) ([1]; 110 minutes)	weight increase rate (%) ([1]; 125 minutes)	weight increase rate (%) ([1]; 140 minutes)	weight increase rate (%) ([1]; 155 minutes)	weight increase rate (%) ([1]; 170 minutes)	weight increase rate (%) ([1]; 185 minutes)	weight increase rate (%) ([1]; 200 minutes)	weight increase rate (%) ([2]; 0 minutes)	weight increase rate (%) ([2]; 15 minutes)	weight increase rate (%) ([2]; 30 minutes)	weight increase rate (%) ([2]; 45 minutes)	weight increase rate (%) ([2]; 60 minutes)	other results
CCOC(=O)[C@H](C)N.O=S(=O)(O)c1ccc(Cl)cc1 [L-Ala-OEt 4-CBS salt, L-alanine ethyl ester 4-chlorobenzenesulfonate]	0.00	2.26	2.83	3.38	3.77	4.10	4.31	4.46	4.58	4.70	4.76	4.82	4.94	4.94	5.03	0.00	1.55	1.51	1.48	1.81	weight increase rate (%) ([2]; 75 minutes): 2.01%; weight increase rate (%) ([2]; 90 minutes): 2.14%; weight increase rate (%) ([2]; 120 minutes): 2.30%; weight increase rate (%) ([2]; 150 minutes): 2.17%; weight increase rate (%) ([2]; 180 minutes): 2.27%
L-alanine methyl ester 2,4-dimethylbenzenesulfonate [L-Ala-OMe 2,4-DMBS salt]	–	–	–	–	–	–	–	–	–	–	–	–	–	–	–	–	–	–	–	–	weight increase rate (%) ([3]; 0 min): 0.00%; weight increase rate (%) ([3]; 10 min): 0.33%; weight increase rate (%) ([3]; 20 min): 0.37%; weight increase rate (%) ([3]; 35 min): 0.37%; weight increase rate (%) ([3]; 50 min): 0.37%; weight increase rate (%) ([3]; 65 min): 0.37%; weight increase rate (%) ([3]; 80 min): 0.37%; weight increase rate (%) ([3]; 95 min): 0.37%; weight increase rate (%) ([3]; 110 min): 0.40%; weight increase rate (%) ([3]; 125 min): 0.43%; weight increase rate (%) ([3]; 140 min): 0.40%; weight increase rate (%) ([3]; 155 min): 0.43%; weight increase rate (%) ([3]; 170 min): 0.47%; weight increase rate (%) ([3]; 185 min): 0.50%; weight increase rate (%) ([3]; 200 min): 0.50%
L-alanine ethyl ester 4-ethylbenzenesulfonate [L-Ala-OEt 4-EBS salt]	0.00	0.09	0.09	0.15	0.15	0.15	0.15	0.15	0.18	0.15	0.18	0.18	0.18	0.15	0.21	0.00	0.00	0.00	0.00	0.13	weight increase rate (%) ([2]; 75 minutes): 0.19%; weight increase rate (%) ([2]; 90 minutes): 0.22%; weight increase rate (%) ([2]; 120 minutes): 0.41%; weight increase rate (%) ([2]; 150 minutes): 0.54%; weight increase rate (%) ([2]; 180 minutes): 0.36%
L-alanine ethyl ester 2,4-dimethylbenzenesulfonate [L-Ala-OEt 2,4-DMBS salt]	0.00	0.00	0.00	0.00	0.00	0.00	0.03	0.00	0.03	0.03	0.03	0.03	0.06	0.06	0.06	0.00	0.00	0.00	0.00	0.03	weight increase rate (%) ([2]; 75 minutes): 0.03%; weight increase rate (%) ([2]; 90 minutes): 0.06%; weight increase rate (%) ([2]; 120 minutes): 0.06%; weight increase rate (%) ([2]; 150 minutes): 0.06%; weight increase rate (%) ([2]; 180 minutes): 0.06%
L-alanine methyl ester 4-ethylbenzenesulfonate [L-Ala-OMe 4-EBS salt]	–	–	–	–	–	–	–	–	–	–	–	–	–	–	–	–	–	–	–	–	weight increase rate (%) ([3]; 0 min): 0.00%; weight increase rate (%) ([3]; 10 min): 0.06%; weight increase rate (%) ([3]; 20 min): 0.06%; weight increase rate (%) ([3]; 35 min): 0.06%; weight increase rate (%) ([3]; 50 min): 0.06%; weight increase rate (%) ([3]; 65 min): 0.03%; weight increase rate (%) ([3]; 80 min): 0.06%; weight increase rate (%) ([3]; 95 min): 0.06%; weight increase rate (%) ([3]; 110 min): 0.03%; weight increase rate (%) ([3]; 125 min): 0.06%; weight increase rate (%) ([3]; 140 min): 0.06%; weight increase rate (%) ([3]; 155 min): 0.06%; weight increase rate (%) ([3]; 170 min): 0.06%; weight increase rate (%) ([3]; 185 min): 0.06%; weight increase rate (%) ([3]; 200 min): 0.06%
CCOC(=O)[C@H](C)N.O=S(=O)(O)c1ccccc1 [L-Ala-OEt BsOH salt, L-alanine ethyl ester benzenesulfonate]	0.00	1.46	1.80	1.97	2.11	2.22	2.25	2.28	2.22	2.22	2.22	2.22	2.28	2.25	2.25	0.00	0.66	0.63	0.75	0.93	weight increase rate (%) ([2]; 75 minutes): 1.05%; weight increase rate (%) ([2]; 90 minutes): 1.08%; weight increase rate (%) ([2]; 120 minutes): 1.23%; weight increase rate (%) ([2]; 150 minutes): 1.02%; weight increase rate (%) ([2]; 180 minutes): 1.08%
L-alanine methyl ester 2,5-dimethylbenzenesulfonate [L-Ala-OMe 2,5-DMBS salt]	–	–	–	–	–	–	–	–	–	–	–	–	–	–	–	–	–	–	–	–	weight increase rate (%) ([3]; 0 min): 0.00%; weight increase rate (%) ([3]; 10 min): 0.06%; weight increase rate (%) ([3]; 20 min): 0.06%; weight increase rate (%) ([3]; 35 min): 0.06%; weight increase rate (%) ([3]; 50 min): 0.03%; weight increase rate (%) ([3]; 65 min): 0.03%; weight increase rate (%) ([3]; 80 min): 0.03%; weight increase rate (%) ([3]; 95 min): 0.00%; weight increase rate (%) ([3]; 110 min): 0.03%; weight increase rate (%) ([3]; 125 min): 0.06%; weight increase rate (%) ([3]; 140 min): 0.00%; weight increase rate (%) ([3]; 155 min): 0.00%; weight increase rate (%) ([3]; 170 min): 0.03%; weight increase rate (%) ([3]; 185 min): 0.03%; weight increase rate (%) ([3]; 200 min): 0.06%
L-alanine ethyl ester 2,5-dimethylbenzenesulfonate [L-Ala-OEt 2,5-DMBS salt]	0.00	0.00	0.03	0.03	0.09	0.06	0.06	0.06	0.12	0.06	0.09	0.09	0.09	0.09	0.12	0.00	0.00	0.00	0.06	0.10	weight increase rate (%) ([2]; 75 minutes): 0.16%; weight increase rate (%) ([2]; 90 minutes): 0.19%; weight increase rate (%) ([2]; 120 minutes): 0.26%; weight increase rate (%) ([2]; 150 minutes): 0.32%; weight increase rate (%) ([2]; 180 minutes): 0.32%
